Read-outs that look alike come from different tables or passages of the source. A value given as a limit tells only on which side of the number the result lay.

Assay type in all cases: biochemical
Test [1] concerns the target T1, ENPP1 (Homo sapiens, UniProt P22413).
T1 sequence (P22413 1-925): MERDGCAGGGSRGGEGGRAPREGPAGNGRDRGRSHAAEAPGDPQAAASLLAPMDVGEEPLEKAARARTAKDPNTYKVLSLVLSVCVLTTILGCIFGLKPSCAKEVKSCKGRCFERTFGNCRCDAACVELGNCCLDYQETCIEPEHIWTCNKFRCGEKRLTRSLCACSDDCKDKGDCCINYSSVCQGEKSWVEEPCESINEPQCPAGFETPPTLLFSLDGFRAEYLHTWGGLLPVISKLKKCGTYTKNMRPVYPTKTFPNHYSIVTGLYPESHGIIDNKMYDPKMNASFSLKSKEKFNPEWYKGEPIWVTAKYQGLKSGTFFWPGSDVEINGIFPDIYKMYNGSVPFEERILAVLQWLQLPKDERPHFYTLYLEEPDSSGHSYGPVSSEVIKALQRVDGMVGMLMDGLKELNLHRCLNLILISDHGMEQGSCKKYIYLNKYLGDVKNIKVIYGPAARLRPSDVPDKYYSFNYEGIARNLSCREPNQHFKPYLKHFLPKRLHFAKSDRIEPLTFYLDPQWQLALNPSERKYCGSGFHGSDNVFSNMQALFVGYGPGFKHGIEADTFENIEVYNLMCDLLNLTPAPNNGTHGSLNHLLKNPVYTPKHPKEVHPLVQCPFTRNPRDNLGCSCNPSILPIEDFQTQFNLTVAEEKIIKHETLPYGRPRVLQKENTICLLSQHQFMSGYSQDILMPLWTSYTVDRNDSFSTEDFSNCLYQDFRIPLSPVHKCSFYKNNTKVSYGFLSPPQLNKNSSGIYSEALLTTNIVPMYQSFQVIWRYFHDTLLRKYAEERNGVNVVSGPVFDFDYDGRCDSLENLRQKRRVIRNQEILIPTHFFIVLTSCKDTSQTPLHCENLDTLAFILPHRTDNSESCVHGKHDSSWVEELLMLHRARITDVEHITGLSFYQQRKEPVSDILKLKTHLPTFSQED
As to the kind of experiment: ENPP1 enzyme assay with TMP-pNP substrate. Further details: purchased R&D Systems. As to conditions: for inhibition at 10 µM: read-out: TMP-pNP: % inhibition at 10 uM, 10 uM compound; for Ki: Ki from IC50 by Cheng-Prusoff. The protocol: Example B2: ENPP1 Enzyme Assay With TMP-pNP Substrate
Ectonucleotide pyrophosphatase/phosphodiesterase 1 (ENPP-1) is a transmembrane glycoprotein that hydrolyzes nucleotides and nucleotide derivatives with the formation of nucleotide-5’-monophosphates. ENPP-1 hydrolyzes thymidine 5’monophosphate p-nitrophenyl ester (TMP-pNP) to nucleotide-5’-monophosphate and p-nitrophenol, which is a chromogenic product. The amount of p-nitrophenol product formed is measured using its absorbance at 405 nm, which is directly proportional to enzyme activity. Different concentrations of inhibitors are pre-incubated with 15 ng/well of human ENPP-1 enzyme (R&D Systems) for 15 minutes at 37° C. The reaction is initiated by adding 200 µM TMP-pNP and incubating for 10 minutes at 37° C. The final assay reaction mixture contains a buffer of 50 mM Tris pH 8.0, 250 mM NaCl, 0.5 mM CaCl2, 1 µM ZnCl2 and 1% DMSO. The amount of product formed is measured directly in a Tecan® spectrophotometer. Maximal activity control samples (containing enzyme, substrate, and buffer in the absence of ENPP1 inhibitors: MAX) and background control samples (containing enzyme, substrate, and buffer plus a fully inhibitory concentration (3 µM) of the reference ENPP1 Inhibitor, Example 333: MIN) are simultaneously evaluated in order to calculate the percent inhibition at each compound concentration as follows:
The IC50 values for percent inhibition versus compound concentration are determined by fitting the inhibition curves (percent inhibition versus inhibitor concentration) using a four-parameter variable slope model in GraphPad Prism® software. Ki values are derived from the IC50 values using the Cheng-Prusoff equation: […]

Test [2] deals with T1, ENPP1. Kind of test: ENPP1 enzyme assay with cGAMP substrate (AMP-Glo). Further details: purchased R&D Systems. Particulars: for inhibition at 1 µM: read-out: cGAMP: % Inhibition at 1 µM; for Ki: Ki from IC50 by Cheng-Prusoff, read-out: cGAMP: Ki; for inhibition at 10 µM: 10 µM compound. An excerpt: Example B1: ENPP1 Enzyme Assay With cGAMP Substrate
Ectonucleotide pyrophosphatase/phosphodiesterase 1 (ENPP-1) is a transmembrane glycoprotein that hydrolyzes nucleotides and nucleotide derivatives with the formation of nucleoside-5’-monophosphates. […] The 5’-AMP formed from the reaction is detected using the AMP-Glo® Kit (Promega). The assay kit contains two reagents. The first reagent terminates the enzymatic reaction, removes ATP (using adenylyl cyclase), and converts 5’-AMP produced into ADP (using polyphosphate: AMP phosphotransferase). The second reagent converts ADP to ATP (using adenylate kinase) and generates light from ATP using the luciferin/luciferase reaction.
Different concentrations of ENPP1 inhibitors are pre-incubated with 5 ng/well of human ENPP-1 enzyme (R&D Systems) for 15 minutes at 37° C. The reaction is initiated by adding 20 µM 2’3’-cGAMP and incubating for 30 minutes at 37° C. The final assay reaction mixture contains a buffer of 50 mM Tris pH 8.0, 250 mM NaCl, 0.5 mM CaCl2, 1 µM ZnCl2 and 1% DMSO. At the end of the incubation, the reaction is stopped by adding 12 µl of AMP-Glo reagent-1 and mixing the reaction uniformly for 5 minutes, followed by incubation at room temperature for one hour. Then 25 µl of AMP Glo reagent-2 is added to the reaction, mixed uniformly with a pipette, and incubated at room temperature for one hour to convert the ADP formed from reagent-1 to ATP and light. The generated light is measured in a Perkin Elmer Victor® instrument.
The IC50 values for percent inhibition versus compound concentration are determined by fitting the inhibition curves using a four-parameter variable slope model in GraphPad Prism® software. Ki values are derived from the IC50 values using the Cheng-Prusoff equation: […]

Test [3] deals with T1, ENPP1. As to the kind of experiment: Indirect quantitation of 2',3'-cGAMP hydrolysis (AMP-Glo Assay kit).
Test [4] addresses T1, ENPP1. Kind of test: ENPP1 enzyme assay with AMP-pNP substrate (hydrolysis of ATP analog). The essentials: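 Human recombinant ENPP1 (60 ng/well) with 300 µM AMP-pNP in 50 mM Tris-HCl pH 8.5, 250 mM NaCl, 0.5 mM CaCl2, 1 µM ZnCl2, 0.1% DMSO, 20 min at 37 °C.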
Test [5] deals with T1, ENPP1. As to the kind of experiment: Substrate selectivity ratio, inhibition of cGAMP hydrolysis versus ATP hydrolysis. As to conditions: ratio Ki AMP-pNP / Ki cGAMP. The protocol: The selectivity ratios for inhibition of cGAMP hydrolysis versus ATP hydrolysis were then calculated as follows: […]
The mark [6] stands for this setting: cGAMP substrate, Ki from IC50 by Cheng-Prusoff, read-out: ENPP1 Inhibition -cGAMP: Ki.

A word on the inhibition: it is the share of the control response that was lost under treatment. A word on the Ki: it is a dissociation constant, usually derived from enzyme kinetics or from competition with a known ligand. For the compound `COc1cc2nc(N(C)C)nc(N3CCC(CCNS(N)(=O)=O)CC3)c2cc1OC` [Example 3, N-(2-(1-(2-(dimethylamino)-6,7-dimethoxyquinazolin-4-yl)piperidin-4-yl)ethyl)sulfamide], the inhibition at 10 µM on ENPP1 [1] is 50 to 75%. Also, the inhibition at 1 µM at ENPP1 [2] (1 µM compound, cGAMP substrate) lay within 25 to 50%. On ENPP1 [3] (setting [6]), the Ki lay within 100 to 1000 nM.

Take `COc1cc2nc(-c3ccncc3)nc(N3CCC(CCNS(N)(=O)=O)CC3)c2cc1OC` [Example 6, N-(2-(1-(6,7-dimethoxy-2-(pyridin-4-yl)quinazolin-4-yl)piperidin-4-yl)ethyl)sulfamide]: the Ki was over 1000 nM at ENPP1 [1], 100 to 1000 nM on ENPP1 [2] (cGAMP substrate) and 100 to 1000 nM at ENPP1 [3] (setting [6]). Moreover, at ENPP1 [2], the inhibition at 1 µM lay in the range of 25 to 50%.

As for `NS(=O)(=O)NCCC1CCN(c2ccnc(Nc3ccccn3)n2)CC1` [Example 11, N-(2-(1-(2-(pyridin-2-ylamino)pyrimidin-4-yl)piperidin-4-yl)ethyl)sulfamide], the inhibition at 1 µM at ENPP1 [2] was under 25%. Also, the Ki at ENPP1 [3] and on ENPP1 [4] was over 1000 nM each time.

For `NS(=O)(=O)NCCC1CCN(c2ccnc(Nc3ccncc3)n2)CC1` [Example 13, N-(2-(1-(2-(pyridin-4-ylamino)pyrimidin-4-yl)piperidin-4-yl)ethyl)sulfamide], the inhibition at 1 µM on ENPP1 [2] was 25 to 50%. In addition, the Ki on ENPP1 [3] (setting [6]) was over 1000 nM.

`NS(=O)(=O)NCCC1CCN(c2ccnc(-c3cccnc3)n2)CC1` [Example 14, N-(2-(1-(2-(pyridin-3-yl)pyrimidin-4-yl)piperidin-4-yl)ethyl)sulfamide]: the inhibition at 1 µM on ENPP1 [2] (1 µM compound, cGAMP substrate) is under 25%. Besides, the Ki at ENPP1 [3] (setting [6]) is over 1000 nM.

In the case of `Cc1cncnc1N1CCC(CCNS(N)(=O)=O)CC1` [Example 17, N-(2-(1-(5-methylpyrimidin-4-yl)piperidin-4-yl)ethyl)sulfamide], the inhibition at 10 µM on ENPP1 [1] and against ENPP1 [2] (cGAMP substrate) was under 25% each time. For the same compound, the Ki on ENPP1 [3] (setting [6]) was over 1000 nM.

For the compound `NS(=O)(=O)NCCC1CCN(c2ccncn2)CC1` [Example 18, N-(2-(1-(pyrimidin-4-yl)piperidin-4-yl)ethyl)sulfamide], the inhibition at 10 µM at ENPP1 [1] is under 25%. Further, the Ki at ENPP1 [3] (setting [6]) is over 1000 nM.

Consider `COc1cc2ccnc(N3CCC(CCNS(N)(=O)=O)CC3)c2cc1OC` [Example 21, N-{2-[1-(6,7-dimethoxyisoquinolin-1-yl)piperidin-4-yl]ethyl}aminosulfonamide], for which the inhibition at 1 µM at ENPP1 [2] was 25 to 50%. Further, the Ki at ENPP1 [3] (setting [6]) is over 1000 nM.

As to `NS(=O)(=O)NCCC1CCN(c2ncnc3nc[nH]c23)CC1` [Example 23, N-(2-(1-(9H-purin-6-yl)piperidin-4-yl)ethyl)sulfamide], the inhibition at 10 µM on ENPP1 [1] and against ENPP1 [2] (cGAMP substrate) was under 25% in each case. Further, the Ki on ENPP1 [3] (setting [6]) is over 1000 nM.

Regarding `Cn1cnc2c(N3CCC(CCNS(N)(=O)=O)CC3)ncnc21` [Example 24, N-(2-(1-(9-methyl-9H-purin-6-yl)piperidin-4-yl)ethyl)sulfamide], the inhibition at 10 µM at ENPP1 [1] is under 25%. The inhibitory constant (Ki) at ENPP1 [3] (setting [6]) is over 1000 nM.

In the case of `NS(=O)(=O)NCCC1CCN(c2ncnc3c2cnn3-c2ccccc2)CC1` [Example 26, N-(2-(1-(1-phenyl-1H-pyrazolo[3,4-d]pyrimidin-4-yl)piperidin-4-yl)ethyl)sulfamide], the inhibition at 1 µM at ENPP1 [2] was under 25%. Also, on ENPP1 [3] (setting [6]), the Ki is over 1000 nM.

Regarding `NS(=O)(=O)NCCC1CCN(c2ncnc3ccccc23)CC1` [Example 35, N-(2-(1-(quinazolin-4-yl)piperidin-4-yl)ethyl)sulfamide], the Ki was over 1000 nM on ENPP1 [1], 100 to 1000 nM on ENPP1 [2] (cGAMP substrate) and 100 to 1000 nM at ENPP1 [3] (setting [6]). The inhibition at 10 µM against ENPP1 [2] (cGAMP substrate) was over 75%.

For the compound `COc1cc2ncnc(N3CCN(CCNS(N)(=O)=O)CC3)c2cc1OC` [Example 40, N-(2-(4-(6,7-dimethoxyquinazolin-4-yl)piperazin-1-yl)ethyl)sulfamide], on ENPP1 [5], the “Substrate Selectivity: Ki_AMP-pNP/Ki_cGAMP” value came out at 24.1. The inhibition at 1 µM on ENPP1 [2] is over 75%. In addition, the Ki at ENPP1 [3] was under 100 nM; on ENPP1 [4], 100 to 1000 nM.

With `COc1cc(C(=O)N2CCC(CCNS(N)(=O)=O)CC2)c(N(C)C)cc1OC` [Example 45, N-(2-(1-(2-(dimethylamino)-4,5-dimethoxybenzoyl)piperidin-4-yl)ethyl)sulfamide], on ENPP1 [2] (1 µM compound, cGAMP substrate), the inhibition at 1 µM is under 25%. For the same compound, the Ki at ENPP1 [3] (setting [6]) was over 1000 nM.

Turning to `COc1cc(N)c(C(=O)N2CCC(CCNS(N)(=O)=O)CC2)cc1OC` [Example 46, N-(2-(1-(2-amino-4,5-dimethoxybenzoyl)piperidin-4-yl)ethyl)sulfamide], the inhibition at 1 µM at ENPP1 [2] (1 µM compound, cGAMP substrate) is under 25%. The Ki at ENPP1 [3] (setting [6]) was over 1000 nM.

Turning to `COc1cccc(C(=O)N2CCC(CCNS(N)(=O)=O)CC2)c1` [Example 48, N-(2-(1-(3-methoxybenzoyl)piperidin-4-yl)ethyl)sulfamide], the inhibition at 1 µM at ENPP1 [2] (1 µM compound, cGAMP substrate) lay within 25 to 50%. Also, the Ki at ENPP1 [3] (setting [6]) was over 1000 nM.

Take `COc1ccc(C(=O)N2CCC(CCNS(N)(=O)=O)CC2)cc1` [Example 49, N-(2-(1-(4-methoxybenzoyl)piperidin-4-yl)ethyl)sulfamide]: the inhibition at 1 µM at ENPP1 [2] (1 µM compound, cGAMP substrate) lay within 25 to 50%. Also, the Ki at ENPP1 [3] (setting [6]) was over 1000 nM.

As for `COc1cc2ncnc(N3CCC(NS(N)(=O)=O)CC3)c2cc1OC` [Example 51, N-(1-(6,7-dimethoxyquinazolin-4-yl)piperidin-4-yl)sulfamide], the inhibition at 1 µM on ENPP1 [2] (1 µM compound, cGAMP substrate) is over 75%. Moreover, the Ki on ENPP1 [2] (cGAMP substrate) and on ENPP1 [3] (setting [6]) was 100 to 1000 nM in each case.
